Laboratory results: patent publication US5473051A, “Inhibition of Mac-1 receptor binding to fibrinogen using D30 homologs” (The Scripps Research Institute, priority 1991, dated 1995)
“And” between values parts separate entries of the source, which are not always exact repeats. Identical values can stand only once. “Also recorded” adds a separate entry of the source.

Experiments:
[1] = tested on: neutrophils or monocytes; assay: Cell attachment to polypeptide-coated wells; type: cell-based, human
Method: To determine the Mac-1 receptor-binding site on the gamma chain of D30, the synthetic polypeptides prepared above were separately evaluated in cell attachment assays. For these assays, wells of 96-well microtiter plates (Linbro/Titertek; Flow Laboratories, VA) were coated with 60 μl of a 1 mg/ml solution of individual synthetic polypeptides prepared above. The wells containing the dissolved polypeptides were maintained for 16 hours at 4° C. The wells were then washed twice with PBS and blocked for 30 minutes with 0.1% BSA in PBS. After a final wash, 100 μl of DMEM containing 1% fetal bovine serum and 2×10^5 cells/ml of either neutrophils or monocytes prepared respectively in Example 2B and Example 8D were admixed into each well. The cells were maintained for 30 minutes at room temperature to allow the cells to attach to the polypeptide-coated wells. Non-adherant cells were removed from the wells by washing twice with PBS. […]
Adherent cells were quantitated by staining with 0.5% crystal violet. […] The optical density (O.D.) at 550 nm was determined with an ELISA reader (Biotek Instruments). Non-specific adherence was determined by plating cells on BSA-coated wells for the appropriate period of time. Specific adhesion to a given polypeptide substrate was calculated by subtracting the O.D. obtained with cells plated on BSA from that observed for cells plated on individual polypeptides. […]

[2] = target: T1, Mac-1 receptor (Homo sapiens, UniProt P05107+P11215); assay: Binding of 125I-P1 to monocytes and competition; design: Separate aliquots of the resuspended Mac-1 receptor-bearing neutrophils were stimulated with 10 μM of the chemotactic peptide; endogenous in cells; host or cells: neutrophils from blood of normal volunteers, stimulated with fMLP
T1 sequence (P05107 23-769, other chains not shown): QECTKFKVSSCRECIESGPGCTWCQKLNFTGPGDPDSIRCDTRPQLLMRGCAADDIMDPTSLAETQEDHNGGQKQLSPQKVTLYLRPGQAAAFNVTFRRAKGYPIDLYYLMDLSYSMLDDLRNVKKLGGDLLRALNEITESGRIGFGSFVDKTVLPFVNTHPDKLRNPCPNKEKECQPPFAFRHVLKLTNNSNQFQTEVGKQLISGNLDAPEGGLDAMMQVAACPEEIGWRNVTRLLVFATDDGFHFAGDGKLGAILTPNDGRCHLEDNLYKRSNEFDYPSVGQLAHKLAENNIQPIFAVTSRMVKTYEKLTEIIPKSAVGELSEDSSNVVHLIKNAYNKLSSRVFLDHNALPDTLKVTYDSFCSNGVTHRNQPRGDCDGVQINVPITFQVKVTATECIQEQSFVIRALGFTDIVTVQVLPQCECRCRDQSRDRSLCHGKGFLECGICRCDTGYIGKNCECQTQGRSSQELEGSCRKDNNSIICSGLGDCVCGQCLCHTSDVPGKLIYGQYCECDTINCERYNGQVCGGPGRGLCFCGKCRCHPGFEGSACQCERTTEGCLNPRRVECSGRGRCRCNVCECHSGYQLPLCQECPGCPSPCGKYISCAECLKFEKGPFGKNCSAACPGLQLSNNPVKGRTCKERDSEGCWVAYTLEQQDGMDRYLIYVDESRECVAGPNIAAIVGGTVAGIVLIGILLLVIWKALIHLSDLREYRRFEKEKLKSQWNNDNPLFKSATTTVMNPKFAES
Method: Anticoagulated blood was prepared as described in Example 2B. After resuspending the pelleted erythrocytes, mononuclear and polynuclear cells with a volume equal to the starting blood volume with chilled 0.14M PBS, 35 ml of the cell suspension were layered onto 15 ml of Ficoll-Hypaque (Pharmacia) in a 50 ml polypropylene tube and centrifuged at 400×g for 40 minutes at room temperature. The cells at the interface were carefully removed with sterile plastic pipettes and were then washed two times with excess 5 mM PBS-EDTA (ethylene diamine tetracetic acid). The washed cells were then centrifuged first at 400×g for 20 minutes at 4° C., the pellet was resuspended as above, then the suspension was centrifuged again at 120×g for 12 minutes at 4° C. The cell pellet was again resuspended to form a PMBC cell suspension. […]
Human monocytes were purified from the platelet-free PMBC cell suspension as described by Fischer et al., Academic Press, Inc., New York, pp: 43-47 (1981). […] The purity of the monocyte preparation was greater than 90% as assessed by alpha-naphthyl acetate esterase staining and the viability was greater than 95% as judged by trypan blue exclusion. […]
The specific cell-associated binding of radiolabelled P1 to monocytes was measured over 60 minutes at 10 minute intervals and was calculated as described in Example 6. […]

[3] = target: T1, Mac-1 receptor; assay: Inhibition of 125I-fibrinogen binding to THP-1 cells by polypeptide; design: Separate aliquots of the resuspended Mac-1 receptor-bearing neutrophils were stimulated with 10 μM of the chemotactic peptide; endogenous in cells; host or cells: neutrophils from blood of normal volunteers, stimulated with fMLP
Method: The specificity of the P1 polypeptide for the Mac-1 receptor on THP-1 cells was confirmed in assays where the binding of purified intact fibrinogen to THP-1 cells was inhibited by P1 but not by the irrelevant polypeptide, L10. The assays were performed as described in Example 6 with the exception that THP-1 cells prepared as described in Example 8D were used instead of neutrophils. The amount of polypeptide used in the assay ranged in concentration from 7 μg/ml up to 60 μg/ml.
The amount of radiolabelled fibrinogen bound to THP-1 cells was expressed as molecules/cell ×1000 and plotted on the ordinate against increasing polypeptide concentrations as shown in FIG. 7.

[4] = target: T1, Mac-1 receptor; assay: Inhibition of 125I-P1 binding to THP-1 cells; design: Separate aliquots of the resuspended Mac-1 receptor-bearing neutrophils were stimulated with 10 μM of the chemotactic peptide; endogenous in cells; details: one hour
Method: Similar binding assays and inhibition thereof were performed using the monocytic cell line THP-1 (ATCC TIB 202, Bethesda, Md.). THP-1 cells were maintained in RPMI 1640 supplemented with 10% fetal bovine serum (HyClone, Logan, UT), 20 mM Hepes, 100 μg/ml gentamycin, 2 mM L-glutamine and 10 μM beta-mercaptoethanol. The competitive inhibitors evaluated in the assay to compete for the binding of the labeled P1 polypeptide to THP-1 cells included the following:D30 prepared as described in Example 1; the irrelevant polypeptide L10 described above; the monoclonal antibody IB4 which recognizes the beta subunit of the Mac-1 receptor (Wright et al., Proc. Natl. Acad. Sci., USA, 80:5699-5703 (1983); the monoclonal antibody M1/70 which recognizes the alpha subunit of the Mac-1 receptor (Ho et al., J. Biol. Chem., 258:2766-2769 (1983); and a monoclonal antibody against tissue factor as described by Morrisey et al., Thromb. Res., 52:247-261 (1988 ).
The assays in which D30 or polypeptides derived therefrom were performed as described above and in Example 6. The assays in which antibodies were used as competitive inhibitors were performed as described in Example 2C using 50 μg/ml of each antibody. […] The amount of binding of radiolabelled P1 polypeptide to THP-1 cells was measured after a […] maintenance period in the absence or presence of unlabelled competitors. […]

[5] = tested on: THP-1 cells; assay: Inhibition of THP-1 cell attachment to fibrinogen-coated wells; type: cell-based, human
Method: Cell attachment assays were performed to determine if the Plb polypeptide (SEQ ID NO 13) which was derived from the gamma chain of D30 from residue 195 to residue 201 would inhibit the binding of THP-1 cells to fibrinogen-coated plates as effectively as the larger polypeptide, P1 (SEQ ID NO 12). The assays were performed as described in Example 8C with the following modifications: the microtiter wells were coated with 10 μg/ml of fibrinogen overnight at room temperature to form fibrinogen-coated wells; the unoccupied sites on the wells were then blocked to prevent non-specific background with 3% gelatin for 30 minutes at room temperature; 2×10^5 THP-1 cells prepared as described in Example 8D2) were separately admixed with the polypeptides P1, […] and L10, the latter of which served as a control, ranging in concentration from 0.03 mg/ml to 1 mg/ml to form THP-1 cell-polypeptide admixtures; the resultant admixtures were maintained for 30 minutes at room temperature after which time the cells were admixed to the fibrinogen-coated plates as described in Example 8C.
The results of the inhibition of cell attachment assay are shown above in Table 2. The absorbance of crystal violet stain, indicating the relative number of cells that attached to the fibrinogen-coated wells, was measured at 600 nm. The absorbance values are tabulated in columns according to the concentration of each polypeptide separately tested in the assay. […] These six amino acid residues comprise the Mac-1 receptor binding site of fibrinogen.

[6] = target: T1, Mac-1 receptor; assay: Competition of 125I-fibrinogen binding to stimulated neutrophils; design: Separate aliquots of the resuspended Mac-1 receptor-bearing neutrophils were stimulated with 10 μM of the chemotactic peptide; endogenous in cells; host or cells: neutrophils from blood of normal volunteers, stimulated with fMLP
Method: Fibrinogen was purified as described in Example 1 and radiolabelled as described for D30 in Example 2A. Mac-1 receptor-bearing neutrophils were prepared as described in 2B. Separate aliquots of stimulated neutrophils at a concentration of 1.5×10^7 cells/ml were simultaneously incubated with a predetermined subsaturating dose of ^125 I-labelled fibrinogen (50 μg/ml) and increasing concentrations of various competing proteins for 20 minutes at room temperature. The reaction in the admixture was terminated by centrifugation through silicon oils as described in Example 2. The amount of labelled Mac-1 receptor:fibrinogen complex was determined by gamma detection. Non-specific binding was calculated as described in Example 2 and subtracted from the total to calculate specific binding.
Unlabelled fibrinogen and fibrinogen fragments X, D:E and D obtained as described in Example 1A and B were evaluated for their ability to compete for labelled fibrinogen binding to stimulated neutrophils.
Fibrinogen fragments E and D30 obtained as described in Example 1B were evaluated for their ability to compete for labelled fibrinogen binding to stimulated neutrophils.

inhibition of fibrinogen binding to THP-1 cells (in words) ([3]; 7 to 60 μg/ml polypeptide)	polypeptide concentration giving maximal inhibition of fibrinogen binding to THP-1 cells ([3]; 7 to 60 μg/ml tested) [µg/mL]	total specific binding of P1 to THP-1 cells in the absence of competitors [4]	IC50 for inhibition of 125I-fibrinogen binding to stimulated neutrophils ([6]; 50 μg/ml 125I-fibrinogen, 20 minutes at room temperature) [µg/mL]	competition of 125I-fibrinogen binding to stimulated neutrophils (in words) ([6]; increasing concentrations of competitor)	Substance	promotion of cell attachment (in words) [1]	competition of 125I-P1 binding to monocytes ([2]; 1 mg/ml cold polypeptide)	binding of radiolabelled P1 to monocytes ([2]; one hour assay, 20,000 cpm 125I-P1)	inhibition of THP-1 cell attachment to fibrinogen (in words) ([5]; 0.03 to 1 mg/ml polypeptide)	polypeptide concentration giving maximal inhibition of THP-1 binding to fibrinogen ([5]; 0.03 to 1 mg/ml tested)	Absorbance at 600 nm (THP-1 cells attached to fibrinogen) ([5]; polypeptide 0.03 mg/ml)	Absorbance at 600 nm (THP-1 cells attached to fibrinogen) ([5]; polypeptide 0.125 mg/ml)	Absorbance at 600 nm (THP-1 cells attached to fibrinogen) ([5]; polypeptide 0.5 mg/ml)	Absorbance at 600 nm (THP-1 cells attached to fibrinogen) ([5]; polypeptide 0.60 mg/ml)	Absorbance at 600 nm (THP-1 cells attached to fibrinogen) ([5]; polypeptide 1.0 mg/ml)	125I-fibrinogen specifically bound in the absence of competitors ([6]; stimulated neutrophils, 50 μg/ml 125I-fibrinogen)
inhibited	20	approximately 16,000 cpm	–	–	KYGWTVFQKRLDGSV [P1, N-terminal lysine-tyrosine-glycine added]	promoting cells attachment	competitively inhibited; also recorded: competed	binds to monocytes in a non-saturable curve	effective at inhibiting cell attachment at all concentrations	0,125 mg/ml	1.02	0.42	0.36	1.12	0.48	–
–	–	–	25 to 50	compete	fibrinogen	–	–	–	–	–	–	–	–	–	–	80,200±8,000 molecules/cell and 99,600±4,500 molecules/cell
